What was measured:
large bowel adenomas = experiment: Randomized, double-blind, placebo-controlled study of aspirin on occurrence of large bowel adenomas; assay type: in vivo, humans; settings: for Relative Crude Risk (95% CI) / Adjusted Relative Risk (95% CI): versus placebo
Excerpt: Patients were recruited at nine centers in North America.
By protocol, subjects were to have a complete surveillance colonoscopy 34-40 months after the qualifying examination. At each colonoscopy, the endoscopist recorded the estimated size and location of all polyps and mucosal lesions suspicious for neoplasia as per usual clinical practice. Each lesion was removed and examined histologically at the clinical center and by the study pathologist. Polyps were classified as neoplastic (adenomatous) or non-neoplastic (e.g., hyperplastic) by the study pathologist.
The primary study outcome was the proportion of subjects with one or more colorectal adenomas detected during the period from one year after randomization through the anticipated surveillance follow-up. If a surveillance colonoscopy was not performed during the protocol time window, the last examination at least one year after randomization was taken as the follow-up exam. Pre-specified secondary outcomes were the numbers of large-bowel adenomas and “advanced lesions”: tubulovillous adenomas (25 to 75 percent villous features), villous adenomas (>75 percent villous), large adenomas ([…]), severe dysplasia, or invasive cancer. Separate analyses were also conducted for lesions in the left colorectum (descending colon, sigmoid colon, and rectum) and right colorectum (the remainder of the bowel).

[1] = Serious medical events in the randomized, placebo-controlled aspirin study; settings: for Serious Bleeding, Gastrointestinal, no of subjects / Serious Bleeding, Genitourinary, no of subjects: bleeding leading to hospitalization or surgical intervention
Method: A multi-center, randomized, double-blind, placebo-controlled study was performed that examined the effects of aspirin alone as well as folate treatment combined with aspirin on the occurrence of large bowel adenomas. The study has a 3-by-2 factorial design, investigating aspirin (placebo, 81 mg/day, or 325 mg/day) and folic acid (placebo or 1 mg/day). Patients were recruited at nine centers in North America. Eligible subjects had at least one of the following: (1) one or more histologically confirmed large-bowel adenomas removed within 3 months prior to recruitment, (2) one or more histologically confirmed large-bowel adenomas removed within 16 months before recruitment and a lifetime history of 2 or more confirmed large-bowel adenomas, or (3) a histologically confirmed large-bowel adenoma at least 1 cm in diameter removed within 16 months before recruitment. […] Eligible subjects were between 21 and 80 years old, in good health, and with anticipated colonoscopic follow-up three years after the qualifying examination. Exclusion criteria included a history of a familial colorectal cancer syndrome, invasive large-bowel cancer, malabsorption syndromes, any condition potentially worsened by supplemental aspirin or folic acid, or any condition commonly treated with aspirin, non-steroidal anti-inflammatory drugs (NSAIDs), or folate (e.g., recurrent arthritis, atherosclerotic vascular disease, folic acid deficiency).
Study coordinators at each center maintained contact with the subjects on a regular basis; interval questionnaires regarding possible side effects and medical events were completed every four months by each subject.
Subjects were regularly counseled regarding avoidance of aspirin and other NSATDs. Lists of products containing aspirin, ibuprofen, or naproxen were provided, and acetaminophen was distributed for treatment of minor febrile illnesses and pain. Every four months, subjects received questionnaires regarding adherence to study treatment; use of medications, over-the-counter drugs and nutritional supplements; and occurrence of symptoms, illnesses, and hospitalizations.
The statistical analysis compared the aspirin treatment groups irrespective of folic acid treatment. Subjects who underwent a follow-up endoscopy at least one year following randomization were included in the analyses. The predefined primary statistical analysis was a 2 degree-of-freedom chi-squared test for a contingency table comparing treatment groups regarding risk of one or more new adenomas. Crude risk ratios and 95 percent confidence intervals were used to compare treatment groups to placebo. Adjusted risk ratios were obtained from log-linear models with age, gender, clinical center, number of lifetime adenomas, and duration of follow-up as covariates. […] Possible modification of treatment effects by baseline characteristics was assessed using interaction terms in the log-linear model. Counts of other clinical endpoints were compared using Fisher's exact test. To compare the effect of aspirin on different types of polyps, a logistic regression model was used with generalized estimating equations (Liang and Zeger Biometrika 1986:13-22) to account for the clustering of multiple endpoints within patients. […] Two-sided P-values <0.05 were considered statistically significant.

[2] = Advanced Lesion, both aspirin groups combined
[3] = Any Adenoma, both aspirin groups combined
[4] = Tubular Adenoma, both aspirin groups combined

## CC(=O)Oc1ccccc1C(=O)O [Aspirin, acetylsalicylic acid]
Large bowel adenomas; 81 mg aspirin
  reduction in risk for advanced lesions: > 40%
  reduction in risk of one or more adenomas: 19%
Large bowel adenomas; 81 mg aspirin, among women
  adjusted risk ratio for the detection of at least one advanced adenoma: 0.18
Large bowel adenomas; 81 mg aspirin, among younger subjects (younger than median age 57 years at randomization)
  adjusted risk ratio for the detection of at least one advanced adenoma: 0.37
Large bowel adenomas; 325 mg aspirin, non-significant
  reduction in risk of one or more adenomas: 4%
Large bowel adenomas; Advanced Lesion, 81 mg/day
  N with adenoma/N followed: 28/366
  N with adenoma/N followed (percent): (7.7%)
  Relative Crude Risk (95% CI): 0.59
Large bowel adenomas; Advanced Lesion, 81 mg/day, adjusted
  Adjusted Relative Risk (95% CI): 0.58
Large bowel adenomas; Advanced Lesion, 325 mg/day
  N with adenoma/N followed: 38/355
  N with adenoma/N followed (percent): (10.7%)
  Relative Crude Risk (95% CI): 0.83
Large bowel adenomas; Advanced Lesion, 325 mg/day, adjusted
  Adjusted Relative Risk (95% CI): 0.83
Large bowel adenomas; [2]
  N with adenoma/N followed: 66/721
  N with adenoma/N followed (percent): (9.2%)
  Relative Crude Risk (95% CI): 0.71
Large bowel adenomas; Advanced Lesion, both aspirin groups combined, adjusted
  Adjusted Relative Risk (95% CI): 0.70
Large bowel adenomas; Any Adenoma, 81 mg/day
  N with adenoma/N followed: 140/366
  N with adenoma/N followed (percent): (38.3%)
  Relative Crude Risk (95% CI): 0.81
Large bowel adenomas; Any Adenoma, 81 mg/day, listed as aspirin
  N with adenoma/N followed (percent): 38.3%
Large bowel adenomas; Any Adenoma, 81 mg/day, adjusted
  Adjusted Relative Risk (95% CI): 0.83
Large bowel adenomas; Any Adenoma, 325 mg/day
  N with adenoma/N followed: 160/355
  N with adenoma/N followed (percent): (45.1%)
  Relative Crude Risk (95% CI): 0.96
Large bowel adenomas; Any Adenoma, 325 mg/day, listed as aspirin
  N with adenoma/N followed (percent): 45.1%
Large bowel adenomas; Any Adenoma, 325 mg/day, adjusted
  Adjusted Relative Risk (95% CI): 0.95
Large bowel adenomas; [3]
  N with adenoma/N followed (percent): (41.6%)
  Relative Crude Risk (95% CI): 0.88
Large bowel adenomas; Any Adenoma, both aspirin groups combined (81 and 325 mg/day)
  N with adenoma/N followed: 300/721
Large bowel adenomas; Any Adenoma, both aspirin groups combined, adjusted for age, sex, clinical center, length of follow-up, baseline number of lifetime adenoma
  Adjusted Relative Risk (95% CI): 0.89
Large bowel adenomas; Tubular Adenoma, 81 mg/day
  N with adenoma/N followed: 121/366
  N with adenoma/N followed (percent): (33.1%)
  Relative Crude Risk (95% CI): 0.84
Large bowel adenomas; Tubular Adenoma, 81 mg/day, adjusted
  Adjusted Relative Risk (95% CI): 0.87
Large bowel adenomas; Tubular Adenoma, 325 mg/day
  N with adenoma/N followed: 141/355
  N with adenoma/N followed (percent): (39.7%)
  Relative Crude Risk (95% CI): 1.01
Large bowel adenomas; Tubular Adenoma, 325 mg/day, adjusted
  Adjusted Relative Risk (95% CI): 1.00
Large bowel adenomas; [4]
  N with adenoma/N followed: 262/721
  N with adenoma/N followed (percent): (36.3%)
  Relative Crude Risk (95% CI): 0.92
Large bowel adenomas; Tubular Adenoma, both aspirin groups combined, adjusted
  Adjusted Relative Risk (95% CI): 0.93
Large bowel adenomas; both aspirin groups combined, non-significant
  reduction in risk of one or more adenomas: 12%
Large bowel adenomas; patients randomized to the aspirin groups
  incidence of adenomas: significantly lower
[1]; 81 mg Aspirin, N = 377 (Table 2)
  Died, percent: 0.8%
[1]; 81 mg aspirin (N = 377)
  Coronary Revascularization, no of subjects: 3
  Deaths, no of subjects: 3
  Hospitalization, no of subjects: 61
  Myocardial Infarction, no of subjects: 2
  Non-Colorectal Cancer, no of subjects: 14
  Stroke, no of subjects: 2
  Serious Bleeding, Gastrointestinal, no of subjects: 2
  Serious Bleeding, Genitourinary, no of subjects: 6
[1]; 81 mg aspirin group, after review of the medical records
  stroke judged to be hemorrhagic: One
[1]; 325 mg Aspirin, N = 372 (Table 2)
  Died, percent: 1.1%
[1]; 325 mg aspirin (N = 372)
  Coronary Revascularization, no of subjects: 5
  Deaths, no of subjects: 4
  Hospitalization, no of subjects: 57
  Myocardial Infarction, no of subjects: 4
  Non-Colorectal Cancer, no of subjects: 9
  Stroke, no of subjects: 5
  Serious Bleeding, Gastrointestinal, no of subjects: 4
  Serious Bleeding, Genitourinary, no of subjects: 2
[1]; aspirin groups versus placebo, differences compatible with chance
  Hospitalization, cancer and myocardial infarction frequency: somewhat more frequently in the aspirin groups than in placebo
[1]; both aspirin groups together, none in placebo
  patients diagnosed with a stroke (all non-fatal): Seven
